Laboratory results published in US11479539B2, “Small molecule modulators of the BTB domain of Keap1” (MedImmune Limited, priority 2017, dated 2022).

Target: Keap1 (Homo sapiens (Human), UniProt Q14145)
Test: HEK293 ARE luciferase assay
Type: cell-based
Settings: HEK-293 ARE firefly luciferase transiently transfected cells; 18 h incubation; mean of 1 to 20 individual measurements
Source text: The purpose of this assay is to identify small molecule inhibitors of Keap1, preventing Keap1 binding to Nrf2, and thus activating the Nrf2 signalling pathway in HEK-293 ARE firefly luciferase transiently transfected cells. HEK-293 cells express wild-type Keap1 protein and therefore have low constitutive levels of Nrf2 protein and Nrf2-dependent transcription. […] When Keap1 is inhibited, Nrf2 signalling is activated, and there is an increase in luciferase expression and light emission.
Cryopreserved HEK ARE luciferase cells were rapidly thawed in a 37° C. water bath and resuspended in assay culture medium (DMEM, 10% FCS, 2 mM L-glutamine). The cell suspension was pelleted by centrifugation ([…]; 300 g) using a Heraeus benchtop centrifuge. Supernatant was removed and the pellet was gently resuspended in 5 mL culture medium per vial. Cell viability and cell number was measured using an Invitrogen Countess automated cell counter (typical viability 80%), and cells were diluted to a density of 5.0×10^5 cells/mL.
Cells were then plated out into white 384-well plates (Greiner 781080) using a Multidrop Combi, 20 μL/well, to give 10,000 cells/well. As appropriate, test compounds had been added to wells prior to dispensing cells using an Echo 555 acoustic dispenser (Labcyte). Plates were left at room temperature for ˜10 min to promote even cell settling across the plate before incubation for 18 h at 37° C., 95% humidity and 5% CO2.
After 18 h incubation, plates were removed from the incubator and allowed to cool to room temperature for 30 min, before 10 μL per well SteadyGlo reagent detection reagent was added (as per manufacturer's instructions, 10 min before required 10 mL room temperature buffer was added to one vial of lyophilised substrate and inverted several times to fully dissolve). Plates were then incubated in the dark for 30 min before reading on an Envision plate reader.
Compounds were acoustically dispensed using a Labcyte Echo, using a 10 pt dose curve with a top concentration of 100 μM. Assay wells were backfilled with DMSO to a total of 60 nL to maintain 0.3% (v/v) DMSO through the assay.
The Stimulator signal was defined using 30 μM tert-butyl hydroquinone (tBHQ) and the Neutral signal by DMSO vehicle control. All calculations were performed using GeneData.
In IBIS Column Calculations, Assay Type was set to ‘Stimulator’, and the Activity Threshold was set to 50.
The mean values were calculated from anywhere from 1 to 20 individual measurements.

Chain of Keap1 (Q14145 whole entry): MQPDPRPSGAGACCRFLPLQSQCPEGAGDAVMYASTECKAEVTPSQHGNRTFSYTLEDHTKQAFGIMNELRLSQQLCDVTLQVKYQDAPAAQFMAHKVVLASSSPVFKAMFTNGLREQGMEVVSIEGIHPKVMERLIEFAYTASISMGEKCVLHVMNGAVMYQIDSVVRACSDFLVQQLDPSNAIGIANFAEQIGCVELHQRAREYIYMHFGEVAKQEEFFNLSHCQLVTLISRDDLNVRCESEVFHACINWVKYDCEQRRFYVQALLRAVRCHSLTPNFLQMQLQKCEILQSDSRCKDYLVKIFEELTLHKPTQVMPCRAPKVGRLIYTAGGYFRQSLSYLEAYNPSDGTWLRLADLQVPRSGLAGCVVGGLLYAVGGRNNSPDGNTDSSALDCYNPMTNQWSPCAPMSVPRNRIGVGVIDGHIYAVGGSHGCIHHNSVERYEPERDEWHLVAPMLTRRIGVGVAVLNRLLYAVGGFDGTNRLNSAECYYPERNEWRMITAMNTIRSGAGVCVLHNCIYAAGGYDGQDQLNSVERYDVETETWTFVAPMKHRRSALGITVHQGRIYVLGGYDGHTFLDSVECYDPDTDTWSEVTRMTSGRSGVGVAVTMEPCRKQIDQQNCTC

| SMILES | EC50 [nM] |
| --- | --- |
| COC1(c2ncc(F)cc2-c2cnc(C)s2)C=C(C#N)C(=O)C(C)(C)C1 (single isomer, unassigned) [Compound 73, 3-[5-fluoro-3-(2-methyl-1,3-thiazol-5-yl)pyridin-2-yl]-3-methoxy-5,5-dimethyl-6-oxocyclohex-1-ene-1-carbonitrile] | 7 |
| COC1(c2cccc(-c3cnc(C)nc3)n2)C=C(C#N)C(=O)C2(CC2)C1 (centres unmarked) [Compound 128, 7-methoxy-7-[6-(2-methylpyrimidin-5-yl)pyridin-2-yl]-4-oxospiro[2.5]oct-5-ene-5-carbonitrile] | 145 |
| COC1(c2nc(C)cs2)C=C(C#N)C(=O)C2(CC2)C1 (centres unmarked) [Compound 140, 7-methoxy-7-(4-methyl-1,3-thiazol-2-yl)-4-oxospiro[2.5]oct-5-ene-5-carbonitrile] | 140 |
| COC1(c2ncc(F)cc2-c2cn(C)nc2C)C=C(C#N)C(=O)C(C)(C)C1 (centres unmarked) [Compound 172, 3-[3-(1,3-dimethyl-1H-pyrazol-4-yl)-5-fluoropyridin-2-yl]-3-methoxy-5,5-dimethyl-6-oxocyclohex-1-ene-1-carbonitrile] | 8 |
| COC1(c2ncc(F)cc2-c2cncc(C#N)c2)C=C(C#N)C(=O)C(C)(C)C1 (centres unmarked) [Compound 184, 2′-(3-cyano-1-methoxy-5,5-dimethyl-4-oxocyclohex-2-en-1-yl)-5′-fluoro[3,3′-bypyridine]-5-carbonitrile] | 121 |
| COC1(c2ncc(F)cc2-c2cnnc(C)c2)C=C(C#N)C(=O)C(C)(C)C1 (single isomer, unassigned) [Compound 209, 3-[5-fluoro-3-(6-methylpyridazin-4-yl)pyridin-2-yl]-3-methoxy-5,5-dimethyl-6-oxocyclohex-1-ene-1-carbonitrile] | 15 |
| COc1ccccc1-c1cccc(C2(OC)C=C(C#N)C(=O)C(C)(C)C2)n1 (centres unmarked) [Compound 120, 3-methoxy-3-[6-(2-methoxyphenyl)pyridin-2-yl]-5,5-dimethyl-6-oxocyclohex-1-ene-1-carbonitrile] | 245 |
| COC1(c2scnc2C)C=C(C#N)C(=O)C(C)(C)C1 (centres unmarked) [Compound 150, 3-methoxy-5,5-dimethyl-3-(4-methyl-1,3-thiazol-5-yl)-6-oxocyclohex-1-ene-1-carbonitrile] | 147 |
| COC1(c2cccc(-c3cnn(C)c3)n2)C=C(C#N)C(=O)C2(CC2)C1 (centres unmarked) [Compound 126, 7-methoxy-7-[6-(1-methyl-1H-pyrazol-4-yl)pyridin-2-yl]-4-oxospiro[2.5]oct-5-ene-5-carbonitrile] | 85 |
| COC1(c2ncc(F)cc2-c2ccnc(C)c2C)C=C(C#N)C(=O)C(C)(C)C1 (single isomer, unassigned) [Compound 82, 3-[3-(2,3-dimethyl-4-pyridyl)-5-fluoro-2-pyridyl]-3-methoxy-5,5-dimethyl-6-oxo-cyclohexene-1-carbonitrile] | 52 |
| COC1(c2ncc(F)cc2OC(F)F)C=C(C#N)C(=O)C2(CC2)C1 (single isomer, unassigned) [Compound 62, 7-[3-(difluorometh-oxy)-5-fluoropyridin-2-yl]-7-methoxy-4-oxospiro[2.5]oct-5-ene-5-carbonitrile] | 15 |
| COC1(c2ncc(F)cc2-c2cnn(C)c2C)C=C(C#N)C(=O)C(C)(C)C1 (centres unmarked) [Compound 164, 3-[3-(1,5-dimethyl-1H-pyrazol-4-yl)-5-fluoropyridin-2-yl]-3-methoxy-5,5-dimethyl-6-oxocyclohex-1-ene-1-carbonitrile] | 28 |
| CC1(C)CC(O)(c2ccc(C(F)(F)F)cn2)C=C(C#N)C1=O (centres unmarked) [Compound 24, 3-hydroxy-5,5-dimethyl-6-oxo-3-[5-(trifluoromethyl)-2-pyridyl]cyclo-hexene-1-carbonitrile] | > 10000 |
| COC1(c2ncc(F)cc2C)C=C(C#N)C(=O)C2(CCCC2)C1 (single isomer, unassigned) [Compound 68, 9-(5-fluoro-3-methylpyridin-2-yl)-9-methoxy-6-oxospiro[4.5]dec-7-ene-7-carbonitrile] | 70 |
